Laboratory results: patent US20040166079A1, “N-Lauroyl amino acid composition for slimming the human body” (priority 2003, published 2004)

What was measured:
human adipocytes = assay: Assay of the free fatty acids (lipolytic activity) in isolated human adipocytes in suspension; assay type: cell-based; settings: incubation concentration 0.0019 wt % DE
Excerpt: Hydrolysis of the triglycerides to nonesterified fatty acids and glycerol is called lipolysis. Triglycerides are stored in the adipocytes and constitute the fat reserve. For this reserve to diminish, which is the desired aim when slimming products are used, the triglycerides should be hydrolysed in the form of fatty acids, which in their case can be removed from the cell. Hydrolysis of the triglycerides calls into play a hormone-dependent lipase which must be phosphorylated in order to be active. The phosphorylation step uses a kinase and cAMP. An increase in the cAMP content of the adipocytes is necessary for promoting the activity of the lipase and therefore the lipolysis. The method described consists in incubating the products in the presence of human adipocytes in suspension, followed by […].
The test is carried out using human adipocytes isolated and prepared as a cellular suspension. The adipocytes are isolated from the subcutaneous abdominal adipose tissue recovered during plastic surgery operations (abdominal plastic surgery operations) performed on women. The cells are isolated from fresh tissue. The adipose tissue is isolated and dissociated by the action of a collagenase (SIGMA™, 1 mg/ml, 30 minutes at 37° C., gentle stirring). Collagenase digests the connective tissue present in the adipose tissue. After digestion, the cells are filtered and washed in an appropriate culture medium containing MEM medium free of phenol red, free of glutamine (SIGMA)+2.2 mg/ml of sodium bicarbonate (GIBCO)+50 IU of penicillin (BIOWHITTAKER™)+50 μg/ml of streptomycin (BIOWHITTAKER™)+1% (v/v) of L-glutamine (BIOWHITTAKER™)+0.5% of lipid-free serum albumin (SIGMA™). The adipocyte suspension is used immediately after its preparation.
The test products are diluted in the adipocyte culture medium. They are incubated with the cells in suspension for two hours at 37° C. (250 μl of product+250 μl of adipocyte suspension).
After the incubation, the cell lysis is checked visually by the presence of a lipid layer at the surface of the cellular suspension. The supernatant media are collected. The free fatty acids are assayed by spectrophotometry using a commercial kit (NEFA™ C kit, WAKO), with reference to a fatty acid calibration series. The lypolytic activity of the products is evaluated relative to a control group incubated in the presence of adipocytes and in the absence of product. […] Five assays are performed for each of the test products which are as follows:
This assay is repeated by carrying out new assays at different concentrations.

human pancreatic lipase = biological target: T1, human pancreatic lipase (Homo sapiens, UniProt P16233); assay: Measurement of the activity of lipase (LIPASE-PS kit, absorbance 550 nm); assay type: biochemical; settings: relative to the control, 8 minutes at 37° C.
T1 construct: purchased SIGMA LIPASE-PS kit
T1 sequence (P16233 17-465): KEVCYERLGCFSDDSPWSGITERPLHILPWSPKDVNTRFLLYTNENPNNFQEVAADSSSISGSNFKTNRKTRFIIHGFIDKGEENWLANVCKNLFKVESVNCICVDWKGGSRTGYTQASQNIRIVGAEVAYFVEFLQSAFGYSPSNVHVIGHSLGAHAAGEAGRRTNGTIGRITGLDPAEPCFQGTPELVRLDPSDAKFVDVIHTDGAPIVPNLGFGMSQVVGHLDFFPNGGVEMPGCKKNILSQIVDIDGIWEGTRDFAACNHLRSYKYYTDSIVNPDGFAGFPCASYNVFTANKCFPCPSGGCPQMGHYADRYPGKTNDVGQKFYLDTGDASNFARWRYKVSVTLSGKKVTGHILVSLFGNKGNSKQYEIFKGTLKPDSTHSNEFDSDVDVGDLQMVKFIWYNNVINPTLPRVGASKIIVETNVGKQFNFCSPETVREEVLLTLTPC
T1 sequence (P02703 23-112 partner): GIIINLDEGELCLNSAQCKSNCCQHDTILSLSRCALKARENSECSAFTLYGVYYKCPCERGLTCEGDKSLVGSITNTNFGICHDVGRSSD
Description: Lipase is an enzyme which degrades triglycerides to fatty acids and glycerol according to the following reaction scheme: [drawing 5]
Inside the adipocytes, the free fatty acids can thus be removed from storage. […] It is based on an enzymatic test, using a purified enzyme.
A human pancreatic lipase (SIGMA, LIPASE-PS™ kit) is incubated in the presence of a diglyceride and a reaction system to produce a coloured quinone diimine which can be assayed by spectrophotometry (550 nm). The measurement of the absorbance at 550 nm is directly proportional to the activity of the lipase.
All the […] are provided in the LIPASE-PS™ kit (SIGMA) . The product is incubated with the reaction mixture for 8 minutes at 37° C.
The reaction system used is composed of:
The results are presented in the following table as a percentage activation of the lipase relative to the control.

human recombinant MMP-9 = biological target: T2, human recombinant MMP-9 (Homo sapiens, UniProt P14780); assay: Measurement of the activity of metalloproteinase MMP-9 (DQ-gelatin fluorescence); assay type: biochemical; settings: incubation concentration 0.1 % DE; relative to the control
T2 construct: purchased CALBIOCHEM PF024
Description: The objective of this test is to evaluate the inhibitory capacity of a product on the enzymatic activity of MMP-2 and MMP-9. This test is based on an enzymatic reaction between purified MMP-2 or MMP-9 and a specific substrate containing a chromophore. The degradation of the chromogenic substrate by the enzyme leads to the production of fluorescence monitored by fluorimetry.
(i)—A human recombinant MMP-9 (CALBIOCHEM, PF024) is incubated, at 0.05 μg/ml, in the presence of the product and the chromogenic substrate, DQ-gelatin conjugated with fluorescein (MOLECULAR PROBE, D12054) at 10 μg/ml. The reaction mixture is incubated overnight at room temperature, protected from light. The quantity of DQ-gelatin degraded is measured by fluorescence (Ex: 355 nm; Em: 460 nm).
The reactivity of the enzymatic system is systematically monitored for the measurement of the effect of a metalloproteinase inhibitor, 1,10-phenanthroline. The results are presented in the following table, as a percentage inhibition of the enzymatic activity of MMP-2 and MMP-9 relative to the control.

T2 sequence (P14780 107-707 limits assumed): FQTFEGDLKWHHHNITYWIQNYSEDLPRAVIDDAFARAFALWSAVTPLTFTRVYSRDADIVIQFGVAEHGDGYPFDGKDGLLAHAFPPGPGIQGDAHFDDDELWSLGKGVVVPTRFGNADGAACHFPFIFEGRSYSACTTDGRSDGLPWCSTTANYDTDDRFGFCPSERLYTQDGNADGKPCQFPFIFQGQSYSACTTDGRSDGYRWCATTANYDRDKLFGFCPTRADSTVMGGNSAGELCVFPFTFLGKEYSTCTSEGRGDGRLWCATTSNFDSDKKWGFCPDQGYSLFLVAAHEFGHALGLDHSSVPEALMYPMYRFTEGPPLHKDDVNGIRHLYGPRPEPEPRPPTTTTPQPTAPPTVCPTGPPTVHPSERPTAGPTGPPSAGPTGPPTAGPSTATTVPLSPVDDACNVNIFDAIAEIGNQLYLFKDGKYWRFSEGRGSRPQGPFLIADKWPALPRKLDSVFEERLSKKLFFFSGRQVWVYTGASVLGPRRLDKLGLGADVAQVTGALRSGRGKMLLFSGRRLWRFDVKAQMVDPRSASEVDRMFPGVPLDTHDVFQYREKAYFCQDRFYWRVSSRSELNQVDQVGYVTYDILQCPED

Cn1c(=O)c2c(ncn2C)n(C)c1=O [Caffeine, 1,3,7-trimethyl-xanthine]
Free fatty acid concentration (human adipocytes; 2 h at 37° C., mean of five assays): 15.10 ± 4.11 µM
Lipolytic activity (compared with the control = 100) (human adipocytes; control = 100): 131
Percentage activation of the lipase (human pancreatic lipase; incubation concentration 0.01 % DE): 0%
Percentage activation of the lipase (human pancreatic lipase; incubation concentration 0.1 % DE): 10%
MMP-9 inhibiting effect (human recombinant MMP-9): 0%
